Results as given in US20260176320A1, “MODULATORS OF G-PROTEIN COUPLED RECEPTORS” (priority 2018, published 2026).
Like-named read-outs stand apart in the source and are kept apart here. Square brackets hold non-standard residues; d marks the D form. Peptide text beside a SMILES is read from it. * marks the point of attachment. X1 = O=C(CSCC(=O)*)NCCN1C(=O)c2ccccc2C1=O; Aib = CC(C)(N)C(=O)O

What was measured:
Assay type in all cases: cell-based
GLP-1R [1] = target: T1, GLP-1R (Homo sapiens, UniProt P43220); assay: HitHunter cAMP assay (GLP-1R); conditions: cAMP; for Emax: read-out: (Emax) GLP-1R
T1 sequence (P43220 24-463): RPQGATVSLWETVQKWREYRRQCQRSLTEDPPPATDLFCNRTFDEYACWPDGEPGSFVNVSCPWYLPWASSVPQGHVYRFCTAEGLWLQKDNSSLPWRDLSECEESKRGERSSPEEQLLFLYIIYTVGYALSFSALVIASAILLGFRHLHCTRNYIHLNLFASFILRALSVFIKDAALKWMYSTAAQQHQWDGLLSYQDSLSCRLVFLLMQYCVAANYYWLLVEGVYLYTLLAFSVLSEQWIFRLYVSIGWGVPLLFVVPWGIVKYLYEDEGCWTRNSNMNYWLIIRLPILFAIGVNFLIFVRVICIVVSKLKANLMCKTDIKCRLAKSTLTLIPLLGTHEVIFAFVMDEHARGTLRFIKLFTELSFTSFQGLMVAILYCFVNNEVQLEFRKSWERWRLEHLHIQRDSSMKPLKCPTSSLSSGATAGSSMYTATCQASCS
Outline: (§1)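 Cells were resuspended in HBSS plus HEPES, IBMX (625 μM) and BSA, then dispensed with antibody at 10,000 per well. Agonists followed as 22-point twofold series, 30 min at room temperature. Antibody reagent and detection steps ran 1 h and overnight in the dark before luminescence.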

GLP-1R [2] = target: T1, GLP-1R; assay: PathHunter β-arrestin assay
Outline: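 Agonist concentration–response (22 points, 2-fold steps, duplicates) was run on cells plated the previous day in BSA-supplemented (0.2%) medium. Stimulation lasted 90 min at 37 °C, followed by a 3 h dark incubation with detection reagent at room temperature and a luminescence read.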

GIP-R = target: T2, GIP-R (Homo sapiens, UniProt P48546); assay: HitHunter cAMP assay (GIP-R); conditions: cAMP; for Emax: read-out: (Emax) GIP-R
T2 sequence (P48546 22-466): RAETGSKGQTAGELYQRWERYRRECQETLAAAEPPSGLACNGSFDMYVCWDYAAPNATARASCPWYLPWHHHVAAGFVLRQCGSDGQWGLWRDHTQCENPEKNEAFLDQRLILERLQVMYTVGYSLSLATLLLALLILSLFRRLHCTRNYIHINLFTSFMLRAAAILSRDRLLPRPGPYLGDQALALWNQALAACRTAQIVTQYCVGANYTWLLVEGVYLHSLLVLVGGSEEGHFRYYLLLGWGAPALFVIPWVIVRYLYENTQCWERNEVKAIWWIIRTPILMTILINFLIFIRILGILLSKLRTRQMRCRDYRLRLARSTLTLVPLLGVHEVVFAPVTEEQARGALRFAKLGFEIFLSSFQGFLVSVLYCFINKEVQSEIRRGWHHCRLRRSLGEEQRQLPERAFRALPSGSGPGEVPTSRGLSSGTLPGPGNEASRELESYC
Outline: as §1

[3] = Table 3, read-out: EC50 GLP-1R/nM
[4] = Table 3A, read-out: EC50 GLP-1R/nM
[5] = PathHunter β-arrestin assay, read-out: β-arrestin activity EC50
[6] = Table 3, read-out: EC50 GIP-R/nM
[7] = Table 3A, read-out: EC50 GIP-R/nM

| SMILES | EC50 (GLP-1R [1]; EC50 GLP-1R/nM, Table 3) [nM] | EC50 (GLP-1R [1]; EC50 GLP-1R/nM, Table 3A) [nM] | Emax (GLP-1R [1]; Table 3) [%] | Emax (GLP-1R [1]; Table 3A) [%] | EC50 (GLP-1R [2]) [nM] | EC50 (GIP-R; EC50 GIP-R/nM, Table 3) [nM] | EC50 (GIP-R; EC50 GIP-R/nM, Table 3A) [nM] | Emax (GIP-R; Table 3) [%] | Emax (GIP-R; Table 3A) [%] | EC50 (GIP-R; read-out: EC50 GIP-R/nM, Table 3) [nM] | EC50 (GIP-R; read-out: EC50 GIP-R/nM, Table 3A) [nM] | EC50 (GLP-1R [1]; [3]) [nM] | EC50 (GLP-1R [1]; [4]) [nM] | EC50 (GLP-1R [2]; [5]) [nM] | EC50 (GIP-R; [6]) [nM] | EC50 (GIP-R; [7]) [nM] |
| --- | --- | --- | --- | --- | --- | --- | --- | --- | --- | --- | --- | --- | --- | --- | --- | --- |
| CC[C@H](C)[C@H](NC(=O)[C@H](CO)NC(=O)[C@H](Cc1ccc(O)cc1)NC(=O)[C@H](CC(=O)O)NC(=O)[C@H](CO)NC(=O)[C@@H](NC(=O)[C@H](Cc1ccccc1)NC(=O)[C@@H](NC(=O)CNC(=O)[C@H](CCC(=O)O)NC(=O)CSCC(=O)NCCN1C(=O)c2ccccc2C1=O)[C@@H](C)O)[C@@H](C)O)C(=O)N[C@@H](Cc1ccc(O)cc1)C(=O)N[C@@H](CC(C)C)C(=O)N[C@@H](CC(=O)O)C(=O)N[C@@H](CCCCN)C(=O)N[C@@H](CCC(N)=O)C(=O)N[C@@H](C)C(=O)N[C@@H](C)C(=O)NC(C)(C)C(=O)N[C@@H](CCC(=O)O)C(=O)N[C@@H](Cc1ccccc1)C(=O)N[C@H](C(=O)N[C@@H](CC(N)=O)C(=O)N[C@@H](Cc1c[nH]c2ccccc12)C(=O)N[C@@H](CC(C)C)C(=O)N[C@@H](CC(C)C)C(=O)N[C@@H](C)C(=O)NCC(=O)NCC(=O)N1CCC[C@H]1C(=O)N[C@@H](CO)C(=O)N[C@@H](CO)C(=O)NCC(=O)N[C@@H](C)C(=O)N1CCC[C@H]1C(=O)N1CCC[C@H]1C(=O)N1CCC[C@H]1C(=O)N[C@@H](CO)C(=O)N[C@@H](CCCCN)C(N)=O)[C@@H](C)CC [Compound 144] (X1-EGTFTSDYSIYLDKQAA[Aib]EFINWLLAGGPSSGAPPPSK-NH2) | 1 to 10 | 1 to 10 | 93 to 119 | 93 to 119 | > 1000 | < 0.1 | < 0.1 | 127 to 140 | 127 to 140 |  |  |  |  |  |  |  |
| CC[C@H](C)[C@H](NC(=O)[C@H](CO)NC(=O)[C@H](Cc1ccc(O)cc1)NC(=O)[C@H](CC(=O)O)NC(=O)[C@H](CO)NC(=O)[C@@H](NC(=O)[C@H](Cc1ccccc1)NC(=O)[C@@H](NC(=O)CNC(=O)[C@H](CCC(=O)O)NC(=O)CSCC(=O)NCCN1C(=O)c2ccccc2C1=O)[C@@H](C)O)[C@@H](C)O)C(=O)N[C@@H](Cc1ccc(O)cc1)C(=O)N[C@@H](CC(C)C)C(=O)N[C@@H](CC(=O)O)C(=O)N[C@@H](CCCCN)C(=O)N[C@@H](CCC(N)=O)C(=O)N[C@@H](C)C(=O)N[C@@H](C)C(=O)NC(C)(C)C(=O)N[C@@H](CC(C)C)C(=O)N[C@@H](Cc1ccccc1)C(=O)N[C@H](C(=O)N[C@@H](CC(N)=O)C(=O)N[C@@H](Cc1c[nH]c2ccccc12)C(=O)N[C@@H](CC(C)C)C(=O)N[C@@H](CC(C)C)C(=O)N[C@@H](C)C(=O)NCC(=O)NCC(=O)N1CCC[C@H]1C(=O)N[C@@H](CO)C(=O)N[C@@H](CO)C(=O)NCC(=O)N[C@@H](C)C(=O)N1CCC[C@H]1C(=O)N1CCC[C@H]1C(=O)N1CCC[C@H]1C(=O)N[C@@H](CO)C(=O)N[C@@H](CCCCN)C(N)=O)C(C)C [Compound 145] (X1-EGTFTSDYSIYLDKQAA[Aib]LFVNWLLAGGPSSGAPPPSK-NH2) | 1 to 10 | 1 to 10 | 100 to 104 | 100 to 104 | > 1000 |  |  | 125 | 125 | < 1 | < 1 |  |  |  |  |  |
| CC[C@H](C)[C@H](NC(=O)[C@H](CO)NC(=O)[C@H](Cc1ccc(O)cc1)NC(=O)[C@H](CC(=O)O)NC(=O)[C@H](CO)NC(=O)[C@@H](NC(=O)[C@H](Cc1ccccc1)NC(=O)[C@@H](NC(=O)CNC(=O)[C@H](CCC(=O)O)NC(=O)CCNC(=O)CCCN1C(=O)c2ccccc2C1=O)[C@@H](C)O)[C@@H](C)O)C(=O)N[C@@H](Cc1ccc(O)cc1)C(=O)N[C@@H](CC(C)C)C(=O)N[C@@H](CC(=O)O)C(=O)N[C@@H](CCCCN)C(=O)N[C@@H](CCC(N)=O)C(=O)N[C@@H](C)C(=O)N[C@@H](C)C(=O)NC(C)(C)C(=O)N[C@@H](CCC(=O)O)C(=O)N[C@@H](Cc1ccccc1)C(=O)N[C@H](C(=O)N[C@@H](CC(N)=O)C(=O)N[C@@H](Cc1c[nH]c2ccccc12)C(=O)N[C@@H](CC(C)C)C(=O)N[C@@H](CC(C)C)C(=O)N[C@@H](C)C(=O)NCC(=O)NCC(=O)N1CCC[C@H]1C(=O)N[C@@H](CO)C(=O)N[C@@H](CO)C(=O)NCC(=O)N[C@@H](C)C(=O)N1CCC[C@H]1C(=O)N1CCC[C@H]1C(=O)N1CCC[C@H]1C(=O)N[C@@H](CO)C(=O)N[C@@H](CCCCN)C(N)=O)C(C)C [Compound 146] |  |  | 86 to 92 | 86 to 92 |  |  |  | 83 to 97 | 83 to 97 |  |  | 1 to 10 | 1 to 10 | > 1000 | 10 to 100 | 1 to 10 |
| CC[C@H](C)[C@H](NC(=O)[C@H](CO)NC(=O)[C@H](Cc1ccc(O)cc1)NC(=O)[C@H](CC(=O)O)NC(=O)[C@H](CO)NC(=O)[C@@H](NC(=O)[C@H](Cc1ccccc1)NC(=O)[C@@H](NC(=O)CNC(=O)[C@H](CCC(=O)O)NC(=O)CSCC(=O)NCCN1C(=O)c2ccccc2C1=O)[C@@H](C)O)[C@@H](C)O)C(=O)N[C@@H](Cc1ccc(O)cc1)C(=O)N[C@@H](CC(C)C)C(=O)N[C@@H](CC(=O)O)C(=O)N[C@@H](CCCCN)C(=O)N[C@@H](CCC(N)=O)C(=O)N[C@@H](C)C(=O)N[C@H](C(=O)NC(C)(C)C(=O)N[C@@H](CCC(=O)O)C(=O)N[C@@H](Cc1ccccc1)C(=O)N[C@H](C(=O)N[C@@H](CC(N)=O)C(=O)N[C@@H](Cc1c[nH]c2ccccc12)C(=O)N[C@@H](CC(C)C)C(=O)N[C@@H](CC(C)C)C(=O)N[C@@H](C)C(=O)NCC(=O)NCC(=O)N1CCC[C@H]1C(=O)N[C@@H](CO)C(=O)N[C@@H](CO)C(=O)NCC(=O)N[C@@H](C)C(=O)N1CCC[C@H]1C(=O)N1CCC[C@H]1C(=O)N1CCC[C@H]1C(=O)N[C@@H](CO)C(=O)N[C@@H](CCCCN)C(N)=O)C(C)C)C(C)C [Compound 147] (X1-EGTFTSDYSIYLDKQAV[Aib]EFVNWLLAGGPSSGAPPPSK-NH2) | 1 to 10 | 1 to 10 | 87 to 97 | 87 to 97 | > 1000 | < 0.1 | < 0.1 | 114 to 128 | 114 to 128 |  |  |  |  |  |  |  |
| CC[C@H](C)[C@H](NC(=O)[C@H](CO)NC(=O)[C@H](Cc1ccc(O)cc1)NC(=O)[C@H](CC(=O)O)NC(=O)[C@H](CO)NC(=O)[C@@H](NC(=O)[C@H](Cc1ccccc1)NC(=O)[C@@H](NC(=O)CNC(=O)[C@H](CCC(=O)O)NC(=O)CCNC(=O)NCCN1C(=O)CSC1=O)[C@@H](C)O)[C@@H](C)O)C(=O)N[C@@H](Cc1ccc(O)cc1)C(=O)N[C@@H](CC(C)C)C(=O)N[C@@H](CC(=O)O)C(=O)N[C@@H](CCCCN)C(=O)N[C@@H](CCC(N)=O)C(=O)N[C@@H](C)C(=O)N[C@@H](C)C(=O)NC(C)(C)C(=O)N[C@@H](CCC(=O)O)C(=O)N[C@@H](Cc1ccccc1)C(=O)N[C@H](C(=O)N[C@@H](CC(N)=O)C(=O)N[C@@H](Cc1c[nH]c2ccccc12)C(=O)N[C@@H](CC(C)C)C(=O)N[C@@H](CC(C)C)C(=O)N[C@@H](C)C(=O)NCC(=O)NCC(=O)N1CCC[C@H]1C(=O)N[C@@H](CO)C(=O)N[C@@H](CO)C(=O)NCC(=O)N[C@@H](C)C(=O)N1CCC[C@H]1C(=O)N1CCC[C@H]1C(=O)N1CCC[C@H]1C(=O)N[C@@H](CO)C(=O)N[C@@H](CCCCN)C(N)=O)C(C)C [Compound 148] |  |  | 99 | 99 |  |  |  | 64 to 67 | 64 to 67 |  |  | 0.1 to 1 | 0.1 to 1 | > 1000 | 1 to 10 | 1 to 10 |
